The record followed here is patent publication US7109174B2, “Anticonvulsant derivatives useful for preventing the development of type II diabetes mellitus and syndrome X” (Ortho-McNeil Pharmaceutical, Inc., priority 2000, dated 2006).

The structures appear in SMILES notation.

This assay concerns Female db/db mice. Description: Oral glucose tolerance test (fasted) in female db/db mice after 11 days oral dosing. Conditions: for Oral Glucose Tolerance Test (fasted) Plasma Glucose: ± sem. It counts as in vivo. As for the experimental part: Female db/db mice (C57BLK S/J-m^+/^+ Lepr^db Jackson Labs, Bar Harbor, Me.), 7–8 weeks of age, were housed four per cage in solid-bottomed shoe box cages. Room temperature was maintained at 68–72° F. and humidity at 50–65%. Room lighting was on a 12-hour light/12-hour dark cycle. The mice were maintained on NIH Rat and Mouse/Auto 6F reduced fat diet #5K52 (PMI Nutrition Int'l Inc.). Food and water were supplied ad libitum.
Test compound and vehicle were dosed orally and prepared as suspensions in 0.5% hydroxypropylmethylcellulose (Dow Chemical, Midland, Mich.). The dosing volume was 10 mL/kg of body weight.
Different groups of female db/db mice (7–8/group) were orally gavaged daily for 11 days with either 0.5% methylcellulose in dH2O (vehicle), topiramate at 30 or 100 mg/kg/day or 2,3:4,5-bis-O-(1-methylethylidene)-β-L-fructopyranose sulfamate (hereinafter referred to as Compound V) at 30 or 100 mg/kg/day. On day 10, the animals were fasted for 20 hours before being tested for oral glucose tolerance (OGT). On day 11, four hours after the final dose for each group, an oral glucose tolerance test (OGTT) was performed by oral glucose administration of 2 g/kg. Animals were bled through tail clip at 0 (before glucose), 30, 60 and 120 min after glucose challenge. The blood samples were collected into heparinized CB microvettes and then put on ice. The plasma samples will be assayed for plasma glucose determination by using SIGMA DIAGNOSTICS Trinder reagent (Sigma, St. Louis, Mo.). Statistical analysis was performed using the program Instat (Graphpad, Monrovia, Calif.) and performing one-way ANOVA with a Dunnett's multiple comparison test.
Following the above described procedure, the effect of topiramate and compound V on oral glucose tolerance in female db/db mice, 7 mice/group, was determined, with results as listed in Table 9. The abbreviation N represents the number of animals per study group.

`CC1(C)O[C@H]2[C@H](CO[C@]3(COS(N)(=O)=O)OC(C)(C)O[C@H]23)O1` [Compound V, 2,3:4,5-bis-O-(1-methylethylidene)-β-L-fructopyranose sulfamate] came in with an Oral Glucose Tolerance Test (fasted) Plasma Glucose (30 mg/kg/day, 0 min (before glucose 2 g/kg)) of 221 ± 22.9 mg/dL; an Oral Glucose Tolerance Test (fasted) Plasma Glucose (30 mg/kg/day, 30 min after glucose 2 g/kg) of 441 ± 35.7 mg/dL; an Oral Glucose Tolerance Test (fasted) Plasma Glucose (30 mg/kg/day, 60 min after glucose 2 g/kg) of 244 ± 21.6 mg/dL; an Oral Glucose Tolerance Test (fasted) Plasma Glucose (30 mg/kg/day, 120 min after glucose 2 g/kg) of 213 ± 28.7 mg/dL; an Oral Glucose Tolerance Test (fasted) Plasma Glucose (100 mg/kg/day, 0 min (before glucose 2 g/kg)) of 152 ± 27.3 mg/dL; an Oral Glucose Tolerance Test (fasted) Plasma Glucose (100 mg/kg/day, 30 min after glucose 2 g/kg) of 449 ± 42.6 mg/dL. The Oral Glucose Tolerance Test (fasted) Plasma Glucose is, setting by setting: (100 mg/kg/day, 60 min after glucose 2 g/kg) 319 ± 52.7 mg/dL; (100 mg/kg/day, 120 min after glucose 2 g/kg) 153 ± 33 mg/dL. Besides, the “elevated blood glucose levels induced by oral glucose challenge” value (30 or 100 mg/kg/day) is given as “suppressed”. In addition, under “30 or 100 mg/kg/day”, the fasting glucose levels entry was “decreased”.
